One experiment deals with CD3. Particulars: as disclosed in WO 00/45800; cited from earlier work.
For the next experiment, the system named is lymphocytes. Particulars: as disclosed in WO 00/45800; cited from earlier work.
The next experiment relates to CD 28. The conditions noted are these: as disclosed in WO 00/45800; cited from earlier work.
The test system of experiment [1] is IL-1 beta production by PBMC. The experiment is described as follows: IL-1 beta assay, LPS-stimulated PBMC, sandwich ELISA. The experiment is classed as cell-based, human. Particulars: Table 7; same conditions as example 26; read-out: IL1β IC50. How it is done:
(§1) All reagents were dissolved in 0.5 ml dimethylsulfoxide (hereinafter referred as DMSO) and further diluted in culture medium before use for the following in vitro experiments. The commercially available culture medium consisted of RPMI-1640+10% foetal calf serum (FCS). Peripheral blood mononuclear cells (herein referred as PBMC), in response to stimulation by lipopolysaccharide (LPS), a gram-negative bacterial endotoxin, produce various […], in particular human TNF-alpha and II-1 beta. The inhibition of the activation of PBMC can be measured by the level of suppression of the production of TNF-alpha or IL-1 beta by PBMC in response to stimulation by LPS. Such inhibition measurement was performed as follows: PBMC were isolated from heparinized peripheral blood (Buffy coat) by density gradient centrifugation. LPS is then added to the PMBC suspension in complete medium (10^6 cells/ml) at a final concentration of 1 μg/ml. The compound to be tested was added at different dilution levels, and the cells were incubated at 37° C. for 72 hours. The supernatants were collected, and TNF-alpha or II-1 beta concentrations were measured with respectively an anti-TNF antibody or an anti-IL-1 beta antibody in a sandwich ELISA. The percent inhibition was calculated as: % inhibition=(pg/ml in sample−pg/ml min.)/(pg/ml max.−pg/ml min.)−1 wherein: min.: pg/ml in culture medium without test compound, and • max.: pg/ml in culture medium+LPS without test compound.
On the technique in general: An ELISA detects its analyte on a solid surface through an enzyme-linked reagent.

For experiment [2], the system named is peripheral blood mononuclear cells (PBMC). Description: Mixed lymphocyte reaction (MLR) test. It is filed as cell-based, human. Particulars: Table 7; same conditions as example 26. How it is done:
All reagents were dissolved in 0.5 ml dimethylsulfoxide (hereinafter referred as DMSO) and further diluted in culture medium before use for the following in vitro experiments. The commercially available culture medium consisted of RPMI-1640+10% foetal calf serum (FCS). Peripheral blood mononuclear cells (hereinafter referred as PBMC) were isolated from heparinized peripheral blood by density gradient centrifugation over Lymphoprep (Nycomed, Maorstua, Norway). Allogeneic PBMC or […]-Barr Virus-transformed human B cells [commercially available under the trade name RPMI1788 (ATCC name CCL156)] which strongly express B7-1 and B7-2 antigens were used as stimulator cells after irradiation with 30 Gy. MLR was performed in triplicate wells. After 5 days incubation at 37° C., 1 μCi [^3H]-thymidine was added to each cup. After a further 16 hours incubation, cells were harvested and counted in a β-counter. Inhibition of proliferation by a compound (drug) described in some of the previous examples was counted using the formula: [formula] wherein cpm is the thymidine count per minute. TNF-Alpha and IL-1 Beta Assays

Experiment [3] deals with TNF-alpha production by PBMC. Description: TNF-alpha assay, LPS-stimulated PBMC, sandwich ELISA. It is filed as cell-based, human. The conditions noted are these: Table 7; same conditions as example 26; read-out: TNFα IC50. The protocol: as §1

This is an account of results in patent publication US20070043000A1, “Immunosuppresive effects of pteridine derivatives” (priority 2003, published 2007).

Turning to `COc1ccc(-c2nc3c(nc2C(=O)c2ccccc2)c(=O)n(C)c(=O)n3C)cc1` [1,3-dimethyl-6-benzoyl-7-(4-methoxyphenyl)lumazine], the “result in CD3 assay” value with CD3 is listed as “poor results”. Further, in the experiment with lymphocytes, the “result in Mixed Lymphocyte Reaction test” value is “poor results”. The “result in CD 28 assay” value in the experiment with CD 28 is on record as “poor results”.
As a reminder, the IC50 is the midpoint of a concentration-inhibition curve. With `Cn1c(=O)n(CCCC#N)c(=O)c2nc(-c3ccccc3)c(Cl)nc21` [Example 67, 3-butyronitrile-7-chloro-1-methyl-6-phenyl-lumazine], the IC50 in experiment [1] amounted to 0.6 µM; in experiment [2] it was 4.8 µM; in experiment [3] it was 0.7 µM.
On to `CCOC(=O)CCCn1c(=O)c2nc(-c3ccccc3)c(Cl)nc2n(CC)c1=O` [Example 68, 7-chloro-1-ethyl-3-(ethyl butyrate)-6-phenyl-lumazine], for which the IC50 was found to be 0.6 µM in experiment [1], 6.8 µM in experiment [2] and 3.1 µM in experiment [3].
For `CC(=O)Nn1c(=O)c2nc(-c3ccccc3)c(Cl)nc2n(C)c1=O` [Example 69, 3-acetamido-7-chloro-1-methyl-6-phenyl-lumazine] the same measures were 3.4 µM, 4.5 µM and 5.8 µM.
On the same counts, the results for `CCOC(=O)CCCn1c(=O)c2nc(-c3ccccc3)c(Br)nc2n(C)c1=O` [Example 70, 7-bromo-3-(ethyl butyrate)-1-methyl-6-phenyl-lumazine] are 3.5 µM, 5 µM and 5.5 µM.
On the same counts, the results for `CCOC(=O)Cn1c(=O)c2nc(-c3ccccc3)c(Cl)nc2n(C)c1=O` [Example 71, 7-chloro-3-(ethyl acetate)-1-methyl-6-phenyl-lumazine] are 0.6 µM, 2.8 µM and 3.4 µM.
With `CCOC(=O)CCCCn1c(=O)c2nc(-c3ccccc3)c(Cl)nc2n(C)c1=O` [Example 72, 7-chloro-3-(ethyl pentanoate)-1-methyl-6-phenyl-lumazine], the results for the IC50 in experiment [1], in experiment [2] and in experiment [3] were 0.6 µM, 3.5 µM and 3.4 µM, respectively.
For `CCOC(=O)CCCn1c(=O)c2nc(-c3ccc(OC)cc3)c(Cl)nc2n(C)c1=O` [Example 73, 7-chloro-3-(ethyl butyrate)-1-methyl-6-(4-methoxyphenyl)-lumazine] the same measures were 0.5 µM, 4.9 µM and 0.6 µM.
On the same counts, the results for `Cn1c(=O)n(CCN2CCOCC2)c(=O)c2nc(-c3ccccc3)c(Cl)nc21` [Example 74, 7-chloro-1-methyl-3-(2-morpholinoethyl)-6-phenyl-lumazine] are 0.7 µM, 4.2 µM and 2.6 µM.
With `CCCCOC(=O)NCCn1c(=O)c2nc(-c3ccccc3)c(Cl)nc2n(C)c1=O` [Example 75, 3-(2-butyloxycarbonyl-aminoethyl)-7-chloro-1-methyl-6-phenyl-lumazine], the IC50 in experiment [1] was found to be 0.7 µM; in experiment [2], 5.1 µM; in experiment [3], 3.5 µM.
For `COc1ccc(-c2nc3c(=O)n(C)c(=O)n(C)c3nc2Cl)cc1` [Example 76, 7-chloro-1,3-dimethyl-6-(4-methoxyphenyl)-lumazine] the same measures were 0.6 µM, 4.5 µM and 0.6 µM.
On the same counts, the results for `Cn1c(=O)n(CCN2CCCCC2)c(=O)c2nc(-c3ccccc3)c(Cl)nc21` [Example 77, 7-chloro-1-methyl-6-phenyl-3-(2-piperidinoethyl)-lumazine] are 0.7 µM, 3.4 µM and 3.7 µM.
On the same counts, the results for `Cn1c(=O)n(CCN2CCCC2)c(=O)c2nc(-c3ccccc3)c(Cl)nc21` [Example 78, 7-chloro-1-methyl-6-phenyl-3-(2-pyrrolidinoethyl)-lumazine] are 0.8 µM, 4.4 µM and 7.4 µM.
With `CCOC(=O)CCCn1c(=O)c2nc(-c3ccc(OC)c(OC)c3)c(Br)nc2n(C)c1=O` [Example 79, 7-bromo-6-(3,4-dimethoxyphenyl)-3-(ethylbutyrate)-1-methyl-lumazine], the figures for the IC50 in experiment [1], in experiment [2] and in experiment [3] were 0.2 µM, 4.7 µM and 0.7 µM, respectively.
Take `CCOC(=O)CCCn1c(=O)c2nc(-c3ccc(OC)cc3)c(Br)nc2n(C)c1=O` [Example 80, 7-bromo-3-(ethylbutyrate)-1-methyl-6-(4-methoxyphenyl)-lumazine]: the IC50 turned out to be 6.4 µM in experiment [1], 5.6 µM in experiment [2] and 2.1 µM in experiment [3].
For `Cn1c(=O)n(CCN2CCOCC2)c(=O)c2nc(-c3ccccc3)c(Br)nc21` [Example 81, 7-bromo-1-methyl-3-(2-morpholinoethyl)-6-phenyl-lumazine] the same measures were 5.4 µM, 4.7 µM and 1.7 µM.
On the same counts, the results for `COc1ccc(-c2nc3c(=O)n(CCN4CCOCC4)c(=O)n(C)c3nc2Br)cc1OC` [Example 82, 7-bromo-1-methyl-3-(2-morpholinoethyl)-6-(3,4dimethoxyphenyl)-lumazine] are 5.7 µM, 4.6 µM and 10 µM.
On to `CCOC(=O)CCCn1c(=O)c2nc(-c3ccc(OC)cc3)c(F)nc2n(C)c1=O` [Example 83, 3-(ethyl butyrate)-7-fluoro-1-methyl-6-(4-methoxyphenyl)-lumazine], for which the results for the IC50 in experiment [1], in experiment [2] and in experiment [3] were 6.4 µM, 4.5 µM and 4.9 µM, respectively.
For the compound `Cn1c(=O)c2nc(-c3ccc(O)cc3)c(Br)nc2n(C)c1=O` [Example 84, 7-bromo-1,3-dimethyl-6-(4-hydroxyphenyl)-lumazine], the values for the IC50 in experiment [1], in experiment [2] and in experiment [3] were 3.9 µM, 4.1 µM and 0.9 µM, respectively.
Regarding `Cn1c(=O)n(CCCC(=O)O)c(=O)c2nc(-c3ccccc3)c(Cl)nc21` [Example 85, 7-chloro-3-(n-butyric acid)-1-methyl-6-phenyl-lumazine], the IC50 came out at 3.9 µM in experiment [1], 5 µM in experiment [2] and 6.1 µM in experiment [3].
In the case of `CCn1c(=O)n(CCCC(=O)O)c(=O)c2nc(-c3ccccc3)c(Cl)nc21` [Example 86, 7-chloro-3-(n-butyric acid)-1-ethyl-6-phenyl-lumazine], the results for the IC50 in experiment [1], in experiment [2] and in experiment [3] were 2.5 µM, 4.6 µM and 8.4 µM, respectively.
For `CC(C)OC(=O)CCCn1c(=O)c2nc(-c3ccccc3)c(Cl)nc2n(C)c1=O` [Example 87, 7-chloro-3-(isopropyl 4-butyrate)-1-methyl-6-phenyl-lumazine] the same measures were 2.8 µM, 5.4 µM and 6.1 µM.
Take `COc1ccc(-c2nc3c(=O)n(CCCC(=O)OC(C)C)c(=O)n(C)c3nc2Br)cc1OC` [Example 88, 7-bromo-6-(3,4-dimethoxyphenyl)-3-(isopropyl butyrate)-1-methyl-lumazine]: the IC50 in experiment [1] is 7.5 µM; in experiment [2], 4.7 µM; in experiment [3], 0.7 µM.
On the same counts, the results for `Cn1c(=O)n(CCCC(=O)OC(C)(C)C)c(=O)c2nc(-c3ccccc3)c(Cl)nc21` [Example 89, 7-chloro-3-(t-butyl butyrate)-1-methyl-6-phenyl-lumazine] are 2.1 µM, 4.2 µM and 5.6 µM.
Take `Cn1c(=O)n(CCCC(N)=O)c(=O)c2nc(-c3ccccc3)c(Cl)nc21` [Example 90, 3-(4-butyramido)-7-chloro-1-methyl6-phenyl-lumazine]: the IC50 was determined as 1.6 µM in experiment [1], 3.9 µM in experiment [2] and 4.9 µM in experiment [3].
For `CCCNC(=O)CCCn1c(=O)c2nc(-c3ccccc3)c(Cl)nc2n(C)c1=O` [Example 92, 7-chloro-1-methyl-6-phenyl-3-(N-propyl 4-butyramido)-lumazine] the same measures were 1.1 µM, 3.4 µM and 5.4 µM.
